Experimental data from patent US10202389B2, “Pyrazolopyrimidinyl inhibitors of ubiquitin-activating enzyme” (Millennium Pharmaceuticals, Inc., priority 2012, dated 2019).

Target: recombinant human UAE (Homo sapiens (Human), UniProt P22314)
Experiment: Ubiquitin Activating Enzyme (UAE) HTRF Assay
Conditions: read-out: % inhibition @0.111 μM
Experimental: After incubation for 120 minutes, quantification of the FRET is performed on the Pherostar (BMG).
For compounds whose values are marked with an asterisk (*), mouse UAE was used. For all other compounds, human UAE was used.

recombinant human UAE, sequence (P22314 whole entry): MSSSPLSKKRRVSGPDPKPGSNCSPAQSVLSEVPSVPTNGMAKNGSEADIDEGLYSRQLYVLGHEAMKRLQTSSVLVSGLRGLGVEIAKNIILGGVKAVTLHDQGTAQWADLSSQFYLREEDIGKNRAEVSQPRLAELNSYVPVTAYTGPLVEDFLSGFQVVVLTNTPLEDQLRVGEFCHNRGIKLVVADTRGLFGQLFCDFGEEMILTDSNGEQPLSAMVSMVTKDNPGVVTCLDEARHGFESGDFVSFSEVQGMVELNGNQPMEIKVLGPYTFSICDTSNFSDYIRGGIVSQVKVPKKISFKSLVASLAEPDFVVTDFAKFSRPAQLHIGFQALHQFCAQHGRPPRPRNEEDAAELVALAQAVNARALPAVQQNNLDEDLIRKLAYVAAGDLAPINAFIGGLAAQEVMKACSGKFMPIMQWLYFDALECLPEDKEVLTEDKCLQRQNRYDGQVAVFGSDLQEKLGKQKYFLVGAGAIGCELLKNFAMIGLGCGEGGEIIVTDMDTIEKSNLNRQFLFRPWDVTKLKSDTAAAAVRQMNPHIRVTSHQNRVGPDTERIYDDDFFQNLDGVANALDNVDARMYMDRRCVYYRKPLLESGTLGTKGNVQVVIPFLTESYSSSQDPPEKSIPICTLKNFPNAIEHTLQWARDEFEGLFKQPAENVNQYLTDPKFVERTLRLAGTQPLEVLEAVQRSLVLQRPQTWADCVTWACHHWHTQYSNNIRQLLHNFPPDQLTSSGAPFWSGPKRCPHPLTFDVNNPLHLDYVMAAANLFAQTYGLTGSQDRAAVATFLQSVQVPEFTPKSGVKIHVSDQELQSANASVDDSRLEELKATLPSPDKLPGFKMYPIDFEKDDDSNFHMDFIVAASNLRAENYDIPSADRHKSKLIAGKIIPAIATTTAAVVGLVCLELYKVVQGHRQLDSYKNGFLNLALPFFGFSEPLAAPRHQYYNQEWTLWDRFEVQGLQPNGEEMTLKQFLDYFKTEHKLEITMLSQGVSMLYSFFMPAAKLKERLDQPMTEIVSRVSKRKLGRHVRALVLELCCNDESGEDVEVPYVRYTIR

Row | Structure (SMILES) | inhibition at 0.111 µM [%]
1 | Cc1cc(N[C@@H]2C[C@H](COS(N)(=O)=O)[C@@H](O)[C@H]2O)n2nc(-c3ccccc3)cc2n1 (relative stereo) [Compound I-004, (rac)-{(1R,2R,3S,4R)-2,3-dihydroxy-4-[(5-methyl-2-phenylpyrazolo[1,5-a]pyrimidin-7-yl)amino]cyclopentyl}methyl rel-sulfamate] | 31
2 | NS(=O)(=O)OC[C@H]1C[C@@H](Nc2ccnc3cc(-c4cccc(N5CCCCC5)c4)nn23)[C@H](O)[C@@H]1O (relative stereo) [Compound I-077, (rac)-((1R,2R,3S,4R)-2,3-dihydroxy-4-(2-(3-(piperidin-1-yl)phenyl)pyrazolo[1,5-a]pyrimidin-7-ylamino)cyclopentyl)methyl rel-sulfamate] | 100
3 | NS(=O)(=O)OC[C@H]1C[C@@H](Nc2ccnc3cc(-c4cc(C(F)(F)F)ccc4Cl)nn23)[C@H](O)[C@@H]1O (relative stereo) [Compound I-030, (rac)-((1R,2R,3S,4R)-4-((2-(2-Chloro-5-(trifluoromethyl)phenyl)pyrazolo[1,5-a]pyrimidin-7-yl)amino)-2,3-dihydroxycyclopentyl)methyl rel-sulfamate] | 99
4 | CC1(C)COc2ccc(-c3cc4nccc(N[C@@H]5C[C@H](COS(N)(=O)=O)[C@@H](O)[C@H]5O)n4n3)cc21 (relative stereo) [Compound I-026, (rac)-((1R,2R,3S,4R)-4-(2-(3,3-dimethyl-2,3-dihydrobenzofuran-5-yl)pyrazolo[1,5-a]pyrimidin-7-ylamino)-2,3-dihydroxycyclopentyl)methyl rel-sulfamate] | 100
5 | NS(=O)(=O)OC[C@H]1C[C@@H](Nc2ccnc3cc(-c4cccc(Cc5ccccc5)c4)nn23)[C@H](O)[C@@H]1O (relative stereo) [Compound I-069, (rac)-((1R,2R,3S,4R)-4-(2-(3-benzylphenyl)pyrazolo[1,5-a]pyrimidin-7-ylamino)-2,3-dihydroxycyclopentyl)methyl rel-sulfamate] | 84
6 | NS(=O)(=O)OC[C@H]1C[C@@H](Nc2ccnc3cc(-c4cccc5[nH]ccc45)nn23)[C@H](O)[C@@H]1O (relative stereo) [Compound I-075, (rac)-((1R,2R,3S,4R)-4-(2-(1H-indol-4-yl)pyrazolo[1,5-a]pyrimidin-7-ylamino)-2,3-dihydroxycyclopentyl)methyl rel-sulfamate] | 100
7 | COc1ccc2ccccc2c1-c1cc2nccc(N[C@@H]3C[C@H](COS(N)(=O)=O)[C@@H](O)[C@H]3O)n2n1 [Compound I-104, (s.e.)-((1R,2R,3S,4R)-2,3-dihydroxy-4-(2-(2-methoxynaphthalen-1-yl)pyrazolo[1,5-a]pyrimidin-7-ylamino)cyclopentyl)methyl sulfamate] | 100
8 | NS(=O)(=O)OC[C@H]1C[C@@H](Nc2ccnc3cc(-c4cccc5cc(C(=O)O)ccc45)nn23)[C@H](O)[C@@H]1O (relative stereo) [Compound I-099, (rac)-rel-5-[7-({(1R,2S,3R,4R)-2,3-dihydroxy-4-[(sulfamoyloxy)methyl]cyclopentyl}amino)pyrazolo[1,5-a]pyrimidin-2-yl]-2-naphthoic acid] | 100
9 | NS(=O)(=O)OC[C@H]1C[C@@H](Nc2ccnc3cc(-c4coc5ccccc45)nn23)[C@H](O)[C@@H]1O (relative stereo) [Compound I-049, (rac)-((1R,2R,3S,4R)-4-(2-(benzofuran-3-yl)pyrazolo[1,5-a]pyrimidin-7-ylamino)-2,3-dihydroxycyclopentyl)methyl rel-sulfamate] | 100
10 | CCc1ccc2scc(-c3cc4nccc(N[C@@H]5C[C@H](COS(N)(=O)=O)[C@@H](O)[C@H]5O)n4n3)c2c1 (relative stereo) [Compound I-094, (rac)-((1R,2R,3S,4R)-4-(2-(5-ethylbenzo[b]thiophen-3-yl)pyrazolo[1,5-a]pyrimidin-7-ylamino)-2,3-dihydroxycyclopentyl)methyl rel-sulfamate] | 100
11 | NS(=O)(=O)OC[C@H]1C[C@@H](Nc2ccnc3cc(-c4ccc5c(c4)oc4ccccc45)nn23)[C@H](O)[C@@H]1O (relative stereo) [Compound I-093, (rac)-((1R,2R,3S,4R)-4-(2-(dibenzo[b,d]furan-3-yl)pyrazolo[1,5-a]pyrimidin-7-ylamino)-2,3-dihydroxycyclopentyl)methyl rel-sulfamate] | 100
12 | Cc1cnc2cc(-c3ccccc3)nn2c1N[C@@H]1C[C@H](COS(N)(=O)=O)[C@@H](O)[C@H]1O (relative stereo) [Compound I-089, (rac)-{(1R,2R,3S,4R)-2,3-dihydroxy-4-[(6-methyl-2-phenylpyrazolo[1,5-a]pyrimidin-7-yl)amino]cyclopentyl}methyl rel-sulfamate] | 27
13 | CC(C)(c1cccc(-c2cc3nccc(N[C@@H]4C[C@H](COS(N)(=O)=O)[C@@H](O)[C@H]4O)n3n2)c1)C(F)(F)F (relative stereo) [Compound I-058, (rac)-((1R,2R,3S,4R)-2,3-dihydroxy-4-(2-(3-(1,1,1-trifluoro-2-methylpropan-2-yl)phenyl)pyrazolo[1,5-a]pyrimidin-7-ylamino)cyclopentyl)methyl rel-sulfamate] | 100
14 | NS(=O)(=O)OC[C@H]1C[C@@H](Nc2ccnc3cc(-c4cncc5ccccc45)nn23)[C@H](O)[C@@H]1O (relative stereo) [Compound I-018, (rac)-((1R,2R,3S,4R)-2,3-dihydroxy-4-(2-(isoquinolin-4-yl)pyrazolo[1,5-a]pyrimidin-7-ylamino)cyclopentyl)methyl rel-sulfamate] | 100
15 | NS(=O)(=O)OC[C@H]1C[C@@H](Nc2ccnc3cc(-c4ccccc4SC(F)(F)F)nn23)[C@H](O)[C@@H]1O (relative stereo) [Compound I-079, (rac)-((1R,2R,3S,4R)-2,3-dihydroxy-4-(2-(2-(trifluoromethylthio)phenyl)pyrazolo[1,5-a]pyrimidin-7-ylamino)cyclopentyl)methyl rel-sulfamate] | 75
16 | NS(=O)(=O)OC[C@H]1C[C@@H](Nc2ccnc3cc(-c4ccc(Cl)c5ccccc45)nn23)[C@H](O)[C@@H]1O [Compound I-108, (s.e.)-[(1R,2R,3S,4R)-4-{[2-(4-chloro-1-naphthyl)pyrazolo[1,5-a]pyrimidin-7-yl]amino}-2,3-dihydroxycyclopentyl]methyl sulfamate] | 100
17 | COc1ccc(OC(F)(F)F)cc1-c1cc2nccc(N[C@@H]3C[C@H](COS(N)(=O)=O)[C@@H](O)[C@H]3O)n2n1 (relative stereo) [Compound I-066, (rac)-((1R,2R,3S,4R)-2,3-Dihydroxy-4-((2-(2-methoxy-5-(trifluoromethoxy)-phenyl)pyrazolo[1,5-a]pyrimidin-7-yl)amino)cyclopentyl)methyl rel-sulfamate] | 100
18 | NS(=O)(=O)OC[C@H]1C[C@@H](Nc2ccnc3cc(-c4cccc(C5=CCCC5)c4)nn23)[C@H](O)[C@@H]1O (relative stereo) [Compound I-047, (rac)-(1R,2R,3S,4R)-4-(2-(3-cyclopentenylphenyl)pyrazolo[1,5-a]pyrimidin-7-ylamino)-2,3-dihydroxycyclopentyl)methyl rel-sulfamate] | 100
19 | NS(=O)(=O)OC[C@H]1C[C@@H](Nc2ccnc3cc(-c4ccc(SC(F)(F)F)cc4)nn23)[C@H](O)[C@@H]1O (relative stereo) [Compound I-080, (rac)-((1R,2R,3S,4R)-2,3-dihydroxy-4-(2-(4-(trifluoromethylthio)phenyl)pyrazolo[1,5-a]pyrimidin-7-ylamino)cyclopentyl)methyl rel-sulfamate] | 80
20 | NS(=O)(=O)OC[C@H]1C[C@@H](Nc2c(Cl)cnc3cc(-c4cccc(SC(F)(F)F)c4)nn23)[C@H](O)[C@@H]1O [Compound I-125, (s.e.)-{(1R,2R,3S,4R)-4-[(6-chloro-2-{3-[(trifluoromethyl)sulfanyl]phenyl}pyrazolo[1,5-a]pyrimidin-7-yl)amino]-2,3-dihydroxycyclopentyl}methyl sulfamate] | 50
21 | NS(=O)(=O)OC[C@H]1C[C@@H](Nc2ccnc3cc(-c4cnc5ccccc5c4)nn23)[C@H](O)[C@@H]1O (relative stereo) [Compound I-025, (rac)-((1R,2R,3S,4R)-2,3-dihydroxy-4-(2-(quinolin-3-yl)pyrazolo[1,5-a]pyrimidin-7-ylamino)cyclopentyl)methyl rel-sulfamate] | 93
22 | Cc1ccc2ccccc2c1-c1cc2nccc(N[C@@H]3C[C@H](COS(N)(=O)=O)[C@@H](O)[C@H]3O)n2n1 [Compound I-114, (s.e.)-((1R,2R,3S,4R)-2,3-dihydroxy-4-(2-(2-methylnaphthalen-1-yl)pyrazolo[1,5-a]pyrimidin-7-ylamino)cyclopentyl)methyl sulfamate] | 99
23 | C[Si](C)(C)c1cccc(-c2cc3nccc(N[C@@H]4C[C@H](COS(N)(=O)=O)[C@@H](O)[C@H]4O)n3n2)c1 (relative stereo) [Compound I-035, (rac)-((1R,2R,3S,4R)-2,3-dihydroxy-4-(2-(3-(trimethylsilyl)phenyl)pyrazolo[1,5-a]pyrimidin-7-ylamino)cyclopentyl)methyl rel-sulfamate] | 100
24 | Cc1ccc(Cl)cc1-c1cc2nccc(N[C@@H]3C[C@H](COS(N)(=O)=O)[C@@H](O)[C@H]3O)n2n1 (relative stereo) [Compound I-021, (rac)-((1R,2R,3S,4R)-4-(2-(5-chloro-2-methylphenyl)pyrazolo[1,5-a]pyrimidin-7-ylamino)-2,3-dihydroxycyclopentyl)methyl rel-sulfamate] | 97
25 | NS(=O)(=O)OC[C@H]1C[C@@H](Nc2ccnc3cc(-c4ccnc5cc(Cl)ccc45)nn23)[C@H](O)[C@@H]1O (relative stereo) [Compound I-039, (rac)-((1R,2R,3S,4R)-4-(2-(7-chloroquinolin-4-yl)pyrazolo[1,5-a]pyrimidin-7-ylamino)-2,3-dihydroxycyclopentyl)methyl rel-sulfamate] | 100
